Results: US9476053B2, “Methods and compositions for inhibition of immune responses and autoimmunity” (Dynavax Technologies Corporation, priority 2007, dated 2016)
Read-outs that look alike come from different tables or passages of the source.

Key:
[1] = Solubility of spacer measured as dialcohol precursor; type: physicochemical; conditions: dodecyl spacer measured as dialcohol precursor
Procedure: Thus, the definition of spacers excludes microcarriers or nanocarriers. In addition, a spacer moiety that has low solubility, such as a dodecyl spacer (solubility <5 mg/ml when measured as dialcohol precursor 1,12-dihydroxydodecane) is not preferred because it can reduce the hydrophilicity and activity of the IRC. Preferably, spacer moieties have solubility much greater than 5 mg/ml (e.g., 20 mg/ml, ≦50 mg/ml or 100 mg/ml) when measured as dialcohol precursors.

[2] = biological target: T1, TLR7 (Homo sapiens, UniProt Q9NYK1); assay: TLR7 dependent cell responses (statement in description); type: cell-based
T1 sequence (Q9NYK1 27-1049): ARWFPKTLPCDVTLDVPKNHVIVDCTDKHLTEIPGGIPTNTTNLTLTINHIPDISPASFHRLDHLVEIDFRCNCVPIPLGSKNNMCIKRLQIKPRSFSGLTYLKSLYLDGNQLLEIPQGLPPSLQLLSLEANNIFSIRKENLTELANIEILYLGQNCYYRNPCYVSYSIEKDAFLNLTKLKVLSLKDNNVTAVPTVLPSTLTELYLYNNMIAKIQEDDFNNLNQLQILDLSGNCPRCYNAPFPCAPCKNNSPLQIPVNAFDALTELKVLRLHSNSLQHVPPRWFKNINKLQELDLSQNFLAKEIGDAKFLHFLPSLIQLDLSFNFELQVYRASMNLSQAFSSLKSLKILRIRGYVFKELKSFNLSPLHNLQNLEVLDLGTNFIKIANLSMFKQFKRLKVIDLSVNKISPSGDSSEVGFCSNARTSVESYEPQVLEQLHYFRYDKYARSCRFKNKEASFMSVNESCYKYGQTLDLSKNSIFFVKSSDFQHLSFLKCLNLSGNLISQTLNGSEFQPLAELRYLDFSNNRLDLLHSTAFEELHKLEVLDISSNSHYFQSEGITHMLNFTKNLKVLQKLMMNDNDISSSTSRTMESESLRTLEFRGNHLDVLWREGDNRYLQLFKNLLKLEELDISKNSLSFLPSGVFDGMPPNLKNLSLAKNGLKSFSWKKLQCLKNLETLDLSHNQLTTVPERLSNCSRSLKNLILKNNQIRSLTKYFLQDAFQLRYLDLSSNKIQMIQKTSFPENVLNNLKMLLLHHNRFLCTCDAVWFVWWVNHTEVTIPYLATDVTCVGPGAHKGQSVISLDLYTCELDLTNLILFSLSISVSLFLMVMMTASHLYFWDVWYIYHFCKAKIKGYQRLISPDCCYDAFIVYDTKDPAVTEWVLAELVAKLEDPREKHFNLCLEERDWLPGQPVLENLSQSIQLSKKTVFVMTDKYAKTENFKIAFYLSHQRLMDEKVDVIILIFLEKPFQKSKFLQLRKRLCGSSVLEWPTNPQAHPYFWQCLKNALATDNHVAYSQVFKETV

[3] = biological target: T2, TLR9 (Homo sapiens, UniProt Q9NR96); assay: TLR9 dependent cell responses (statement in description); type: cell-based
T2 sequence (Q9NR96 26-1032): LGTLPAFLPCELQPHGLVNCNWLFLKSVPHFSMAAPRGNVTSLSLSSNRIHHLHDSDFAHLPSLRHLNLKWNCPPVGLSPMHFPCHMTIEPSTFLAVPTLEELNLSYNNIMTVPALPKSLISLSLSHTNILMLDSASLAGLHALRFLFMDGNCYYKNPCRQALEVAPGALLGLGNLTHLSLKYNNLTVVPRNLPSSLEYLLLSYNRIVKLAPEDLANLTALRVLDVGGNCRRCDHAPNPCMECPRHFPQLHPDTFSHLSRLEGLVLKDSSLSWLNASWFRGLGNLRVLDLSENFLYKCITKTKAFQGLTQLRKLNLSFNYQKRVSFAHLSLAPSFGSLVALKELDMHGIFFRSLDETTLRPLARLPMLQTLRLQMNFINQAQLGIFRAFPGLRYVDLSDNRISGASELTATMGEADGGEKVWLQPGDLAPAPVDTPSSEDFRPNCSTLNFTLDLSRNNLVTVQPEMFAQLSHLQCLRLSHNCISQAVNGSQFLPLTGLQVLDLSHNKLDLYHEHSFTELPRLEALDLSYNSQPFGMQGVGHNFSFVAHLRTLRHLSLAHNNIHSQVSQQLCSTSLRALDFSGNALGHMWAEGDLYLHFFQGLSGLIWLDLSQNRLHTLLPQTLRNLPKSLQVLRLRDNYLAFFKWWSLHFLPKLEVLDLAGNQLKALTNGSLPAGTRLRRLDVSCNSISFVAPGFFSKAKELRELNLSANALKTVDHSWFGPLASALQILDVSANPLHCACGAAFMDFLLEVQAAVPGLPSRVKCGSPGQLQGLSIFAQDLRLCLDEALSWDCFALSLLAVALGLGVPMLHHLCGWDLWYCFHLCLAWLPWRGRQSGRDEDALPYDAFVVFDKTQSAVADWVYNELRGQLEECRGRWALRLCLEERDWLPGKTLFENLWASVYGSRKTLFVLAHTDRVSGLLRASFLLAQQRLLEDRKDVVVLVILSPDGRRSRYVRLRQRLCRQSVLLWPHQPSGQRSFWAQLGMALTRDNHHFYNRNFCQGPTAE

[4] = biological target: T3, TLR7 (Mus musculus, UniProt P58681); assay: Mouse splenocytes stimulated with R848 (TLR7 ligand), IL-6 by immunoassay; type: cell-based
T3 construct: The dispersed splenocytes were pelleted by centrifugation, then resuspended in fresh medium; endogenous in cells; host or cells: primary splenocytes of BALB/c mice
T3 sequence (P58681 27-1050): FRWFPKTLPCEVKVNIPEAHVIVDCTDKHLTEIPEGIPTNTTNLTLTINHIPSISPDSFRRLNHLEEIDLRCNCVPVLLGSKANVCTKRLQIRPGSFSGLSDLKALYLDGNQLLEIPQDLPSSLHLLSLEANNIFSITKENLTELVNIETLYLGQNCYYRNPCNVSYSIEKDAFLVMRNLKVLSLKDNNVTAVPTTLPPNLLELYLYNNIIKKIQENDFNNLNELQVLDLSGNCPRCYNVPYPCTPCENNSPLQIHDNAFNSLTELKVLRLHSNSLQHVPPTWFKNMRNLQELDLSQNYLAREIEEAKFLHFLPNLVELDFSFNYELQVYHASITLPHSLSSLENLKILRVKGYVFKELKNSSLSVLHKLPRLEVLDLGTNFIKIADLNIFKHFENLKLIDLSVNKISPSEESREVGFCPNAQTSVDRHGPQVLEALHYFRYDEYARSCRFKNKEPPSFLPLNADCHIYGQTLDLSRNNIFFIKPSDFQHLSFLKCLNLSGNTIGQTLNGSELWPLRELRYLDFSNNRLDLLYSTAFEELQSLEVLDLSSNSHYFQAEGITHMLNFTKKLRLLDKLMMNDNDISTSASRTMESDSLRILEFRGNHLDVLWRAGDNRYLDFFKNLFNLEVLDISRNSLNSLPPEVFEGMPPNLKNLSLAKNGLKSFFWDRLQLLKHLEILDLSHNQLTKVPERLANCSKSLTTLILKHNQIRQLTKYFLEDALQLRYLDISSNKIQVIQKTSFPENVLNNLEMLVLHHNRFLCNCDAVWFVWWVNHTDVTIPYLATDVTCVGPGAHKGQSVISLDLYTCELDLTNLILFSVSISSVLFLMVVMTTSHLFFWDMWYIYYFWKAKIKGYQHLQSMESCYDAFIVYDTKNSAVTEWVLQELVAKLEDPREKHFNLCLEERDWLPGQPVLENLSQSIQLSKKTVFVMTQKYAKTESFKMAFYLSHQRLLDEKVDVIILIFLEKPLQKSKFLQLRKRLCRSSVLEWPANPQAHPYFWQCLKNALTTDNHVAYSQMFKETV
Procedure: Modified and unmodified immunoregulatory polynucleotides (IRPs) (i.e., polynucleotides containing at least one modified or unmodified IRS) or control samples were assayed for immunoregulatory (IR) activity of innate immune responses on human and mouse cells.
For mouse cell assays, spleens from 6-12 week-old BALB/c mice spleen were harvested and mechanically dispersed by forcing the digested fragments through metal screens. The dispersed splenocytes were pelleted by centrifugation, then resuspended in fresh medium (RPMI 1640 with 10% fetal calf serum, plus 50 units/mL penicillin, 50 μg/mL streptomycin, 2 mM glutamine, and 0.05 mM β-mercaptoethanol). In a dose-dependent manner, the cells were then stimulated with […] of 1018 ISS (TLR9 ligand; 5′-[…]-3′ (SEQ ID NO:122)) or 1 μM of R848 (TLR7 ligand; a small molecule, an imidazoquinoline also called resiquimod) either alone or in the presence of the tested IRPs. At 48 hours, supernatants were collected and cytokine levels, IL-6, were measured using immunoassays. […]

[5] = test system: plasmacytoid dendritic cells (PDCs); type: cell-based, human; conditions: read-out: concentration of hydroxycortisone necessary to achieve 50% death of PDCs

Row | Compound | TLR7 dependent cell responses [2] | TLR9 dependent cell responses [3] | further results
1 | OCCCCCCCCCCCCO [1,12-dihydroxydodecane] |  |  | solubility [1]: < 5000 µg/mL
2 | 5′-TGCTTGCAAGCTAGCAAGCA-3′ (chemistry not given here) [SEQ ID NO:33] | inhibits |  | 
3 | 5′-TGCTTGCAAGCTTGCTAGCA-3′ (chemistry not given here) [SEQ ID NO:34] | The same is also true | The same is also true | 
4 | 5′-UGC UCC UGG AGG GGU UGU-3′ (DNA UGCUCCUGGAGGGGUUGU; all 2'-O-methyl, backbone not given here) [SEQ ID NO:135, all nucleotides modified with a 2′-O-Me modification] |  |  | IL-6 levels compared to unmodified SEQ ID NO:123 [4]: significant decrease
5 | 5′-TGCTTGCAAGCTTGCTAGCA-HEG-TCCTGGAGGGGTTGT-3′ (TGCTTGCAAGCTTGCTAGCATCCTGGAGGGGTTGT; Two nucleotide segments joined by a hexaethylene glycol (HEG) spacer, nucleotide chemistry not given here) [SEQ ID NO:69] | The same is also true | The same is also true | 
6 | C[C@]12CCC(=O)C=C1CC[C@@H]1[C@@H]2[C@@H](O)C[C@@]2(C)[C@H]1CC[C@]2(O)C(=O)CO [hydroxycortisone, reference compound] |  |  | EC50 ([5]; in the presence of CpG-C ISS C274): 2000 nM; EC50 ([5]; in the presence of HSV (HSV-1 KOS strain)): 150 nM; EC50 ([5]; in the presence of HSV and SEQ ID NO:123): 4 nM; EC50 ([5]; in the presence of influenza virus and SEQ ID NO:123): 22 nM; EC50 ([5]; in the presence of influenza virus): 4500 nM; EC50 ([5]; in the presence of the ISS and SEQ ID NO:123): 85 nM
7 | 5′-TGCTTGCAAGCTAGCAAGCA-HEG-TCCTGGAGGGGTTGT-3′ (TGCTTGCAAGCTAGCAAGCATCCTGGAGGGGTTGT; Two nucleotide segments joined by a hexaethylene glycol (HEG) spacer, nucleotide chemistry not given here) [SEQ ID NO:68] | very active in inhibiting | very active in inhibiting | 
8 | 5′-TGCTTGCAAGCTTGCAAGCA-3′ (chemistry not given here) [SEQ ID NO:27] | inhibits |  | 
9 | 5′-TCCTGGAGGGGTTGT-3′ (chemistry not given here) [SEQ ID NO:17] |  | greater inhibitory activity | 
